Experimental data: ChEMBL document CHEMBL3351554, “Benzophenone C- and O-glucosides from Cyclopia genistoides (Honeybush) inhibit mammalian α-glucosidase” (2014)
The source made the active and inactive calls. No cut-off for these calls is given here.

Tests used:
Rattus norvegicus [1] = species on record: Rattus norvegicus; assay: Inhibition of rat intestinal alpha-glucosidase using 7-O-alpha-D-glucopyranosyl 4-methylumbelliferone preincubated for 15 mins at 100 to 400 uM prior substrate addition measured over 30 mins by fluorescence assay
L6 = assay: Increase in [3H]-2-DOG uptake in rat L6 cells at 10 uM after 1 hr by liquid scintillation counting relative to vehicle-treated control; format: functional
Rattus norvegicus [2] = species on record: Rattus norvegicus; assay: Inhibition of rat intestinal alpha-glucosidase using 7-O-alpha-D-glucopyranosyl 4-methylumbelliferone preincubated for 15 mins at 200 uM prior substrate addition measured over 30 mins by fluorescence assay
3T3-L1 = assay: Increase in [3H]-2-DOG uptake in mouse 3T3L1 cells at 0.001 to 100 uM after 3 hrs by liquid scintillation counting relative to vehicle-treated control
HepG2/C3A = assay: Increase in [3H]-2-DOG uptake in human HepG2/C3A cells at 0.001 to 100 uM after 3 hr by liquid scintillation counting relative to vehicle-treated control
Rattus norvegicus [3] = species on record: Rattus norvegicus; assay: Inhibition of rat intestinal alpha-glucosidase using 7-O-alpha-D-glucopyranosyl 4-methylumbelliferone preincubated for 15 mins at 50 to 200 uM prior substrate addition measured over 30 mins by fluorescence assay

## O=C(c1ccc(O)cc1)c1c(O)cc(O[C@@H]2O[C@H](CO)[C@@H](O)[C@H](O)[C@H]2O)c([C@@H]2O[C@H](CO)[C@@H](O)[C@H](O)[C@H]2O)c1O
Rattus norvegicus [1]
  inhibition: Active
L6
  Activity: 22%
Rattus norvegicus [2]
  inhibition: 43%
3T3-L1
  Activity: Active
HepG2/C3A
  Activity: Active

## O=C(c1ccc(O)cc1)c1c(O)cc(O)c([C@@H]2O[C@H](CO)[C@@H](O)[C@H](O)[C@H]2O)c1O
Rattus norvegicus [1]
  inhibition: Active
3T3-L1
  Activity: Active
HepG2/C3A
  Activity: Active

## O=C(c1ccc(O)c(O)c1)c1c(O)cc(O)c([C@@H]2O[C@H](CO)[C@@H](O)[C@H](O)[C@H]2O)c1O
Rattus norvegicus [2]
  inhibition: 54%

## O=C(c1ccc(O)c(O)c1)c1c(O)cc(O)cc1O
Rattus norvegicus [3]
  inhibition: inactive
